From US4304679A, “Detergent product containing deodorant compositions” (priority 1978, dated 1981) come the findings set out here.

For this assay, the target named is T1, lipoxidase (ECl.13.1.13) (Glycine max, UniProt P08170).
T1 sequence (P08170 1-839): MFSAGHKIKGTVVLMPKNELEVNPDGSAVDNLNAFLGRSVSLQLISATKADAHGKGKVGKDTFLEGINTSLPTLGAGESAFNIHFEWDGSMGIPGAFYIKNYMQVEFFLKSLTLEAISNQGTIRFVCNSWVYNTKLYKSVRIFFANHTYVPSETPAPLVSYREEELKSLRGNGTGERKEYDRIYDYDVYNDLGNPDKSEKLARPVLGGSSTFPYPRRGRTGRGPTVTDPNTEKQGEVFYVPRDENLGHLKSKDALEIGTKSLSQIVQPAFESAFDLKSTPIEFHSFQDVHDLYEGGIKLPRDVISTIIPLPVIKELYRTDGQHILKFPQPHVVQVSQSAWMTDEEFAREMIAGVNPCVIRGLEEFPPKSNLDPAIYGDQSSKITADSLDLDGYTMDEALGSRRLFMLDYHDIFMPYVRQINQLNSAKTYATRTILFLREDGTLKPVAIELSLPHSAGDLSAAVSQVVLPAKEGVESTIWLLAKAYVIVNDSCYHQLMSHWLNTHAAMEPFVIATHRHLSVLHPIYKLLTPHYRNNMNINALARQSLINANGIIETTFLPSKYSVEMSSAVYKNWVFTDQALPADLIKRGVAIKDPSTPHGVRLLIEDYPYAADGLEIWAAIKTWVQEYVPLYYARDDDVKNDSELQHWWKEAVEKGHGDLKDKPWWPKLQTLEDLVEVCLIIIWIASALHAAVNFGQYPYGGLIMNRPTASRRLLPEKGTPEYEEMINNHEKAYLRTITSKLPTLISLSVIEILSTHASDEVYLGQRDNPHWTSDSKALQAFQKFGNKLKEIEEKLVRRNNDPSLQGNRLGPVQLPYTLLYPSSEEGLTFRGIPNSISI
Briefly: Lipoxidase test: inhibition of the oxidation of linoleic acid by lipoxidase. In kind it is biochemical. To be noted: test substrate made with 0.5% by weight solution of material in ethanol; pH 9.0 borate buffer; 234 nm.
Regarding Dimyrcetol, the “LIC (lipoxidase inhibiting capacity, % inhibition)” value is 16%.

For Tetrahydromuguol, the “LIC (lipoxidase inhibiting capacity, % inhibition)” value is recorded as 24%.

Turning to i-Nonyl acetate, the “LIC (lipoxidase inhibiting capacity, % inhibition)” value is recorded as 50%.

On to i-Nonyl formate, for which the “LIC (lipoxidase inhibiting capacity, % inhibition)” value turned out to be 19%.
